Assay [1] deals with T1, Corticotropin-releasing factor receptor 2/Corticotropin-releasing factor-binding protein (Homo sapiens, UniProt P24387+Q13324).
T1 sequence (Q13324 whole entry): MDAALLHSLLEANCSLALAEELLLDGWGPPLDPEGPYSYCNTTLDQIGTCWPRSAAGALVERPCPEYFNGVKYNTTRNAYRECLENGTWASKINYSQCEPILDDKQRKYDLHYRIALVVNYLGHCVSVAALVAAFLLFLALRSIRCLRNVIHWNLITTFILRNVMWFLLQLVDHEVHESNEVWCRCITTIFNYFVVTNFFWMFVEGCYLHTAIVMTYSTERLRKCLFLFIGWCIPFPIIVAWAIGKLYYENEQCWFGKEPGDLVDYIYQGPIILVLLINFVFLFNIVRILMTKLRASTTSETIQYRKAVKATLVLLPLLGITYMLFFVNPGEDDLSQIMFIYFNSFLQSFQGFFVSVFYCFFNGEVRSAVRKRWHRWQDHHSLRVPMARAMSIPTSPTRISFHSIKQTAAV
T1 sequence (P24387 whole entry): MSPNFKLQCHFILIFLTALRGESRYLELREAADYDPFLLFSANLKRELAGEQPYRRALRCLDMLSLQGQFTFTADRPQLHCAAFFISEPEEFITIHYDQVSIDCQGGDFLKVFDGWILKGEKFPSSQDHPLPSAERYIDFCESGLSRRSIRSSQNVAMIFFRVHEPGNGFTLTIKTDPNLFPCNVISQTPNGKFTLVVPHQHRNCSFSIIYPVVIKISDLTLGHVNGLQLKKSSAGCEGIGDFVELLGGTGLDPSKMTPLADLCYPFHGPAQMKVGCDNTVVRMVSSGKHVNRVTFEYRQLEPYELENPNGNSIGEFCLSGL
Nature of the assay: activators of CRF receptor 2 with binding protein – uHTS hits, confirmation (AID 602473). The format is functional. To be noted: read-out: EC50_Mean.

The target in assay [2] is T2, Low molecular weight phosphotyrosine protein phosphatase (Homo sapiens, UniProt P24666).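 Further: Dose-response confirmation assay measuring inhibition of LMPTP enzyme activity by fluorescence intensity read-out.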
T2 sequence (P24666 whole entry): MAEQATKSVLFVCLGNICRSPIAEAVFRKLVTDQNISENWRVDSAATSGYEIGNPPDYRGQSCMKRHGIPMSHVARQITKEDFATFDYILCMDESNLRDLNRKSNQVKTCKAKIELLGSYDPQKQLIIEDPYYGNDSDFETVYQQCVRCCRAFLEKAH
The format is functional. To be noted: read-out: IC50_Mean.

The target in assay [3] is T1, Corticotropin-releasing factor receptor 2/Corticotropin-releasing factor-binding protein. Nature of the assay: Dose Response confirmation of uHTS hits for small molecule antagonists of the CRF-binding protein and CRF-R2 receptor complex. Format: functional. The settings on record: read-out: IC50_Mean.
Assay [4] deals with Tyrosine-protein phosphatase non-receptor type 11 (Homo sapiens, UniProt Q06124). Nature of the assay: SHP2 phosphatase inhibition, dose response, selectivity assay for STEP inhibitor project, biochemical (AID 602367). The format is functional. The settings on record: read-out: IC50_Mean.
Chain of Tyrosine-protein phosphatase non-receptor type 11 (Q06124 whole entry): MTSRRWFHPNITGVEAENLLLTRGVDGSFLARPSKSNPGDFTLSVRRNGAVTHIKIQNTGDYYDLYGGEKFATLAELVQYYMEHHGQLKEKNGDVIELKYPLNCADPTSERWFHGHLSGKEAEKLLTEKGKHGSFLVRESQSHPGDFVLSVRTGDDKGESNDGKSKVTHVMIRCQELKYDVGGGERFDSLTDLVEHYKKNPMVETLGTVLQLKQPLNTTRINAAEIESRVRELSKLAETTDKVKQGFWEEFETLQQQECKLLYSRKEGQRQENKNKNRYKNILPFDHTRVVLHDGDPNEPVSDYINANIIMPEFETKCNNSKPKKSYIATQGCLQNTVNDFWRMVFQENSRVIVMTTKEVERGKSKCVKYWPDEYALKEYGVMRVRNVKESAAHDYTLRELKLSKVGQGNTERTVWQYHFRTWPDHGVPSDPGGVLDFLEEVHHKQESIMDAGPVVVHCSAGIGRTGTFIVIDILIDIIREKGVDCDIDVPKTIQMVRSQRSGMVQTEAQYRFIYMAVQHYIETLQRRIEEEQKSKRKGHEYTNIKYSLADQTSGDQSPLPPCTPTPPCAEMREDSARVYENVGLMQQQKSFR
The target of assay [5] is Tyrosine-protein phosphatase non-receptor type 5 (Homo sapiens, UniProt P54829). Description: STEP phosphatase inhibitors, confirmation, biochemical, fluorescence intensity, uHTS hits (AID 602372). The format is functional. The settings on record: read-out: IC50_Mean.
Chain of Tyrosine-protein phosphatase non-receptor type 5 (P54829 whole entry): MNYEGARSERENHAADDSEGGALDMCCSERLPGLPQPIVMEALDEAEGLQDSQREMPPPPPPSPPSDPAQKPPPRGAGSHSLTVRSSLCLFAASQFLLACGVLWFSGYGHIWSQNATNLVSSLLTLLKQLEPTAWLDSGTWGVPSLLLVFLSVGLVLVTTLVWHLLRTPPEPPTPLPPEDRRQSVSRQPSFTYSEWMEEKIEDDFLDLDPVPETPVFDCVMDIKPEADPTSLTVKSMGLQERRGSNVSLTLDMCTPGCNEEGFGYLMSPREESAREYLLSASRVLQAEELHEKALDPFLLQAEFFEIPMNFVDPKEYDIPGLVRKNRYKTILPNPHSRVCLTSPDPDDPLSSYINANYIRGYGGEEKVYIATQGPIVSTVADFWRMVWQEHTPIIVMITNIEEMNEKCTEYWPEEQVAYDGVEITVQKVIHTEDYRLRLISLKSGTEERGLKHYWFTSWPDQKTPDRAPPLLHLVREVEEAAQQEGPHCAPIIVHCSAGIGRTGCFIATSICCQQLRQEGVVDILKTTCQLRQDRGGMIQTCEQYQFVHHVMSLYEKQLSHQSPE
Assay [6] deals with Dual specificity protein phosphatase 3 (Homo sapiens, UniProt P51452). Description: VHR phosphatase inhibition, dose response, selectivity assay for STEP inhibitor project, biochemical (AID 602374). Format: functional. To be noted: read-out: IC50_Mean.
Chain of Dual specificity protein phosphatase 3 (P51452 whole entry): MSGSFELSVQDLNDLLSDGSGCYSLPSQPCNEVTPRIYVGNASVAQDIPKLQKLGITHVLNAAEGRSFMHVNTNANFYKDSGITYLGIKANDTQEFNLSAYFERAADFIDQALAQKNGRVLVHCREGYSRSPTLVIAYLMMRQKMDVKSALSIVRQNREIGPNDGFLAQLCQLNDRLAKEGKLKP
The target in a further assay is Protein Wnt-3a (Mus musculus, UniProt P27467). Description: Wnt3a-driven reporter signaling inhibition, dose response, selectivity assay for Gli-SUFU antagonist project, Wnt-LIGHT cells, luminescence (AID 651570).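 Further: Wnt-LIGHT reporter cells stimulated with conditioned medium from Wnt3a-producing cells.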 The format is functional. The settings on record: read-out: IC50_Mean.
Chain of Protein Wnt-3a (P27467 whole entry): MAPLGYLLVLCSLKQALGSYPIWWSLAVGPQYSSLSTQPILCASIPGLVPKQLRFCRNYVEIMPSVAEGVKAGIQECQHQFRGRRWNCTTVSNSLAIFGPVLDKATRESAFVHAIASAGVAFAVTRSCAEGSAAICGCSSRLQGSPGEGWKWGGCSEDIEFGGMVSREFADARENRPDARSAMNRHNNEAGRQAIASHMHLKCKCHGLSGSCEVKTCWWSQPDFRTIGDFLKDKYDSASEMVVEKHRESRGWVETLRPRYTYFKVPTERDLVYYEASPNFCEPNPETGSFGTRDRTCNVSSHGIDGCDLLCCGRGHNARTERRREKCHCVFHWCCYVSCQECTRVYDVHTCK
A further assay concerns INS1. Description: beta cell apoptosis inhibitors, cytokine rescue, dose response, luminescence, retest (AID 449756).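 Further: cell death triggered by IL-1 beta plus TNF-alpha plus IFN-gamma mixture; protective hits raise ATP signal compared with cytokine alone wells.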 Format: functional, cell-based. The settings on record: Rattus norvegicus.

Activity calls are given as the source filed them.

Regarding `COc1ccc(Cn2c(-c3ccco3)nc3c(c(=O)c4ccccc4n3C)c2=O)cc1`, in assay [1], the EC50 is > 53 µM (inactive). The values for the IC50 in assay [2] and in assay [3] were 39 µM (inactive) and > 47.1 µM (inactive), respectively.
Regarding `O=C(N/N=C/c1coc2ccccc2c1=O)c1cc2ccccc2o1`, the values for the IC50 in assay [4], in assay [5] and in assay [6] were 33.4 µM (inactive), 35.8 µM (inactive) and 14.1 µM (active), respectively.
In the case of `CC(C)C(=O)NC(=S)/C=C1/N(C)c2ccccc2C1(C)C`, on Protein Wnt-3a, the IC50 is 9.3 µM (active). For the same molecule, the concentration at half-maximal activity (AC50) – broadly, the concentration at which the activity in the assay is half-maximal – in the assay with INS1 is 7.53 µM (active).
